Assay results: ChEMBL document CHEMBL1933049, “Methylenebissantin: a rare methylene-bridged bisflavonoid from Dodonaea viscosa which inhibits Plasmodium falciparum enoyl-ACP reductase” (Bioorg Med Chem Lett, 2012); call rule not given here

biological target: T1, Enoyl-acyl-carrier protein reductase (Plasmodium falciparum, UniProt Q965D5); experiment: Inhibition of Plasmodium falciparum enoyl-ACP reductase assessed as oxidation of NADH to NAD+ after 10 mins by spectrophotometric analysis; conditions: not given
T1 sequence (Q965D5 whole entry): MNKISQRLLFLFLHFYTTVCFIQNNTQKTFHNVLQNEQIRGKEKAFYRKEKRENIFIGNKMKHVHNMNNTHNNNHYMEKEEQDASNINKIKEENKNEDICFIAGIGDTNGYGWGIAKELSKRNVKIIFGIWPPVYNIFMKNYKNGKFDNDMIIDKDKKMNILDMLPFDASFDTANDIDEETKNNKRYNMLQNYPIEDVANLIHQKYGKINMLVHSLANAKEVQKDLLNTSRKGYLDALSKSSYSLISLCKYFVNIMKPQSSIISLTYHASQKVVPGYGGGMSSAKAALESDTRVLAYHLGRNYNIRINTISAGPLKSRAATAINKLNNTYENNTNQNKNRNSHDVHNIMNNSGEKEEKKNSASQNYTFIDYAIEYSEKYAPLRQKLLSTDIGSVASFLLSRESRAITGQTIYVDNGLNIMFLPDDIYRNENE

Row | IC50 | Structure (SMILES)
1 | Not Active | CCCCCCCCCCCCCCCCCCCCCCOC(=O)/C=C/c1ccc(O)c(O)c1 [DOCOSYL CAFFEATE]
2 | Not Active | COc1c(-c2ccc(O)cc2)oc2cc(O)cc(O)c2c1=O [ISOKAEMPFERIDE]
3 | Not Active | CC(C)=CCc1cc(O[C@@H]2O[C@H](CO)[C@@H](O)[C@H](O)[C@H]2O)ccc1O [NEBRODENSIDE A]
4 | Not Active | C[C@H]1C[C@@H](O)[C@]2(C)C(C(=O)O)=CCC[C@H]2[C@]1(C)CCc1ccoc1

same assay, conditions: read-out: IC50

Row | IC50 [µM] | Structure (SMILES)
5 | 91.1 | COc1ccc(-c2oc3c(Cc4c(O)c(OC)c(O)c5c(=O)c(OC)c(-c6ccc(OC)cc6)oc45)c(O)c(OC)c(O)c3c(=O)c2OC)cc1 [METHYLENEBISSANTIN]
6 | 920 | COc1cc(C(=O)O)ccc1O [VANILLIC ACID]
